We go through 1 compound from patent publication US20060111437A1, “Hyperlipemia therapeutic agent” (Kowa Co., Ltd., priority 2004, published 2006).

The assay is described as follows: Effect on blood triglyceride in rats after repeated oral administration. Format: in vivo. The following applies: male Wistar rats; orally once a day for 21 days; pitavastatin calcium 10 mg/kg and/or EPA-E 1000 mg/kg; blood taken after fasting for 18 hours since final administration; FIG. 1. Here is the method: Male Wistar rats aged 6 weeks (Japan Medical Science Experimental Animal Co., Ltd.) were tested. They were fed in a room maintained in a bright and dark cycle (bright duration by a room light: 7:00 a.m. to 7:00 p.m.) at a temperature of 23±3° C. and a humidity of 55±15% through an experimental duration and allowed to freely take a chow (CE-2; Nippon Clear Co., Ltd.) and city water. Pitavastatin calcium was suspended in a 0.5 mass % aqueous solution of sodium carboxymethyl cellulose (Iwai Kagaku Yakuhin Co., Ltd.) and controlled so that a dose was 2 ml/kg. Pitavastatin calcium contained 9.43 mass % of water, and therefore an amount as 1.1 mass time much as the dose was weighed to correct the practical dose. The suspension was refrigerated (4° C.) in a shaded bottle, and it was prepared every 7 days. EPA-E was taken from Epadel capsule (Dainippon Seiyaku Co., Ltd.) in use, suspended in refined water and controlled so that a dose was 2 ml/kg. […] The differences of multiple groups between the control group and the drug-administered groups were analyzed using Dunnett's multiple comparison test, preceded by Bartlett's analysis of variance.

On to `O=C([O-])C[C@H](O)C[C@H](O)/C=C/c1c(C2CC2)nc2ccccc2c1-c1ccc(F)cc1.O=C([O-])C[C@H](O)C[C@H](O)/C=C/c1c(C2CC2)nc2ccccc2c1-c1ccc(F)cc1.[Ca+2]` [pitavastatin calcium], for which the “triglyceride concentration in blood” value is listed as “tended to be lowered”.
